Results on 27 molecules are retold here after patent US7332489B2, “Methods and compositions of novel triazine compounds” (Reddy US Therapeutics, Inc., priority 2003, dated 2008).

Read-outs that look alike come from different tables or passages of the source.

The subject of this experiment is TNF-α induced IL-6. The experiment is described as follows: TNF-α-induced IL-6 production determined by IL-6 ELISA. The conditions noted are these: Homo sapiens, 24 h, class = % of control IL6 production. The experiment is classed as cell-based. How it is done:
Human aortic endothelial cells (HAEC, Clonetics) were cultured according to manufacturer in growth medium (Clonetics): basal medium containing human epidermal growth factor, hydrocortisone, vascular endothelial growth factor, heparin binding growth factor-B, long R3-insulin-like growth factor-1, ascorbic acid, gentamicin/amphotericin and 5% FBS. These cell were allowed to reach at least 90% confluency before subjected to experimental treatments. […] Tumor necrosis factor α was from R&D Systems.
All treatments, compound-added and controls were carried out in serum free media containing 0.2% albumin. Media from all conditions were collected and used for IL-6 ELISA.
IL-6 ELISA was carried out using human IL-6 DuoSet ELISA development kit as described by manufacturer (R&D Systems). Mouse anti-human Il-6 was used as the capture antibody (2 ug/ml) and biotinylated goat anti-human IL-6 (200 ng/ml) was used as the detection antibody. Culture media were incubated with capture antibody (in 96 well) for 2 h at room temperature. Wells were washed three times with wash buffer (0.05% tween-20 in phosphate buffered saline (PBS) pH 7.4) followed by incubation with detection antibody for 2 h at room temperature. Following three washes wells were incubated with Streptavidin-HRP for 20 min. Color development was read at 450 nm in a Microplate reader.
In general terms: ELISA stands for enzyme-linked immunosorbent assay.

[1] abbreviates: Table 5, first part, read-out: Inhibition of TNF-induced IL6 production.
Where [2] appears, read: Table 5, second part, column 1, read-out: Inhibition of TNF-induced IL6, production.

In the case of `CCN1CCCC1CNc1nc(NCc2ccccc2)nc(Nc2ccc(OC)c(F)c2)n1` (stereo not drawn) [Compound 53, N^2-benzyl-N^4-[(1-ethyl-2-pyrrolidinyl)methyl]-N^6-(3-fluoro-4-methoxyphenyl)-1,3,5-triazine-2,4,6-triamine], the activity at 10 µM under setting [1] lay within 0 to 25% and the activity at 10 µM under setting [2] lay within 25 to 50%. On to `CCN1CCCC1CNc1nc(Nc2ccc(OC)c(F)c2)nc(NC2CCCCC2)n1` (stereo not drawn) [Compound 55, N^2-cyclohexyl-N^4-[(1-ethyl-2-pyrrolidinyl)methyl]-N^6-(3-fluoro-4-methoxyphenyl)-1,3,5-triazine-2,4,6-triamine], for which the activity at 10 µM under setting [1] lay within 0 to 25%. For `CCN1CCCC1CNc1nc(Nc2ccc(OC)c(F)c2)nc(NC2CCCC2)n1` (stereo not drawn) [Compound 56, N^2-cyclopentyl-N^4-[(1-ethyl-2-pyrrolidinyl)methyl]-N^6-(3-fluoro-4-methoxyphenyl)-1,3,5-triazine-2,4,6-triamine], the activity at 10 µM under setting [1] lay within 0 to 25%. As for `CCN1CCCC1CNc1nc(Nc2ccc(OC)c(F)c2)nc(N2CCCC2)n1` (stereo not drawn) [Compound 57, N^2-[(1-ethyl-2-pyrrolidinyl)methyl]-N^4-(3-fluoro-4-methoxyphenyl)-6-(1-pyrrolidinyl)-1,3,5-triazine-2,4-diamine], the activity at 10 µM runs as follows: under setting [1], 0 to 25%; under setting [2], 25 to 50%.

On to `CCN1CCCC1CNc1nc(Nc2ccc(OC)c(F)c2)nc(N2CCCCCC2)n1` (stereo not drawn) [Compound 58, N^2-[(1-ethyl-2-pyrrolidinyl)methyl]-N^4-(3-fluoro-4-methoxyphenyl)-N^6-hexahydro-1H-azepin-1-yl-1,3,5-triazine-2,4-diamine], for which the activity at 10 µM under setting [1] lay in the range of 0 to 25% and the activity at 10 µM under setting [2] was 25 to 50%. On to `CCN1CCCC1CNc1nc(Nc2ccc(OC)c(F)c2)nc(NC2CCC(C)CC2)n1` (stereo not drawn) [Compound 60, N^2-[(1-ethyl-2-pyrrolidinyl)methyl]-N^4-(3-fluoro-4-methoxyphenyl)-N^6-(4-methylcyclohexyl)-1,3,5-triazine-2,4,6-triamine], for which, under setting [1], the activity at 10 µM fell in the range of 0 to 25%. As for `CCN1CCCC1CNc1nc(Nc2ccc(OC)c(F)c2)nc(N2CCN(C)CC2)n1` (stereo not drawn) [Compound 62, N^2-[(1-ethyl-2-pyrrolidinyl)methyl]-N^4-(3-fluoro-4-methoxyphenyl)-6-(4-methyl-1-piperazinyl)-1,3,5-triazine-2,4-diamine], under setting [2], the activity at 10 µM was in the range of 25 to 50%. `CCN1CCCC1CNc1nc(Nc2ccc(OC)c(F)c2)nc(N2CCN(C(C)=O)CC2)n1` (stereo not drawn) [Compound 63, 6-(4-acetyl-1-piperazinyl)-N^2-[(1-ethyl-2-pyrrolidinyl)methyl]-N^4-(3-fluoro-4-methoxyphenyl)-1,3,5-triazine-2,4-diamine]: under setting [1], the activity at 10 µM is 25 to 50%. In the case of `CCOC(=O)N1CCN(c2nc(NCC3CCCN3CC)nc(Nc3ccc(OC)c(F)c3)n2)CC1` (stereo not drawn) [Compound 64, Ethyl 4-{4-{[(1-ethyl-2-pyrrolidinyl)methyl]amino}-N^6-[(3-fluoro-4-methoxyphenyl)amino]-1,3,5-triazin-2-yl}-1-piperazinecarboxylate], the activity at 10 µM under setting [1] is 25 to 50%. For the molecule `CCN1CCCC1CNc1nc(NCC2CCCCC2)nc(Nc2ccc(OC)c(F)c2)n1` (stereo not drawn) [Compound 65, N^2-(cyclohexylmethyl)-N^4-[(1-ethyl-2-pyrrolidinyl)methyl]-N^6-(3-fluoro-4-methoxyphenyl)-1,3,5-triazine-2,4,6-triamine], the activity at 10 µM lay in the range of 0 to 25% under setting [1] and 25 to 50% under setting [2].

Turning to `CCN1CCCC1CNc1nc(NCc2ccco2)nc(Nc2ccc(OC)c(F)c2)n1` (stereo not drawn) [Compound 66, N^2-[(1-ethyl-2-pyrrolidinyl)methyl]-N^4-(3-fluoro-4-methoxyphenyl)-N^6-(2-furylmethyl)-1,3,5-triazine-2,4,6-triamine], the activity at 10 µM is, setting by setting: under setting [1], 0 to 25%; under setting [2], 0 to 25%. In the case of `CCN1CCCC1CNc1nc(NCC(F)(F)F)nc(Nc2ccc(OC)c(F)c2)n1` (stereo not drawn) [Compound 67, N^2-[(1-ethyl-2-pyrrolidinyl)methyl]-N^4-(3-fluoro-4-methoxyphenyl)-N^6-(2,2,2-trifluoroethyl)-1,3,5-triazine-2,4,6-triamine], under setting [2], the activity at 10 µM lay within 25 to 50%. With `CCN1CCCC1CNc1nc(NCCN(C)C)nc(Nc2ccc(OC)c(F)c2)n1` (stereo not drawn) [Compound 68, N^2-[2-(dimethylamino)ethyl]-N^4-[(1-ethyl-2-pyrrolidinyl)methyl]-N^6-(3-fluoro-4-methoxyphenyl)-1,3,5-triazine-2,4,6-triamine], the activity at 10 µM runs as follows: under setting [1], 0 to 25%; under setting [2], 25 to 50%. In the same order, the values of `CCN1CCCC1CNc1nc(Nc2ccc(OC)c(F)c2)nc(N2CCN(CC(=O)N3CCCC3)CC2)n1` (stereo not drawn) [Compound 69, N^2-[(1-ethyl-2-pyrrolidinyl)methyl]-N^4-(3-fluoro-4-methoxyphenyl)-N^6-{4-[2-oxo-2-(1-pyrrolidinyl)ethyl]-1-piperazinyl}-1,3,5-triazine-2,4-diamine] are 0 to 25% and 0 to 25%.

Take `CCN1CCCC1CNc1nc(NCC2CCCN2CC)nc(Nc2ccc(OC)c(F)c2)n1` (stereo not drawn) [Compound 70, N^2,N^4-bis[(1-ethyl-2-pyrrolidinyl)methyl]-N^6-(3-fluoro-4-methoxyphenyl)-1,3,5-triazine-2,4,6-triamine]: the activity at 10 µM was 0 to 25% under setting [1] and 25 to 50% under setting [2]. Consider `CCN1CCCC1CNc1nc(NCCN2CCCCC2)nc(Nc2ccc(OC)c(F)c2)n1` (stereo not drawn) [Compound 71, N^2-[(1-ethyl-2-pyrrolidinyl)methyl]-N^4-(3-fluoro-4-methoxyphenyl)-N^6-[2-(1-piperidinyl)ethyl]-1,3,5-triazine-2,4,6-triamine], for which the activity at 10 µM is, setting by setting: under setting [1], 0 to 25%; under setting [2], 25 to 50%.

On to `CCN1CCCC1CNc1nc(Nc2ccc(OC)c(F)c2)nc(N2CCN(Cc3ccc4c(c3)OCO4)CC2)n1` (stereo not drawn) [Compound 72, N^6-[4-(1,3-benzodioxol-5-ylmethyl)-1-piperazinyl]-N^2-[(1-ethyl-2-pyrrolidinyl)methyl]-N^4-(3-fluoro-4-methoxyphenyl)-1,3,5-triazine-2,4-diamine], for which the activity at 10 µM reads like this: under setting [1], 0 to 25%; under setting [2], 25 to 50%. Regarding `CCN1CCCC1CNc1nc(Nc2ccc(OC)c(F)c2)nc(N2CCN(c3ccccn3)CC2)n1` (stereo not drawn) [Compound 73, N^2-[(1-ethyl-2-pyrrolidinyl)methyl]-N^4-(3-fluoro-4-methoxyphenyl)-N^6-[4-(2-pyridinyl)-1-piperazinyl]-1,3,5-triazine-2,4-diamine], the activity at 10 µM runs as follows: under setting [1], 0 to 25%; under setting [2], 0 to 25%. As for `CCN1CCCC1CNc1nc(NCCCN2CCCC2=O)nc(Nc2ccc(OC)c(F)c2)n1` (stereo not drawn) [Compound 74, 1-[3-({4-{[(1-ethyl-2-pyrrolidinyl)methyl]amino}-6-[(3-fluoro-4-methoxyphenyl)amino]-1,3,5-triazin-2-yl}amino)propyl]-2-pyrrolidinone], the activity at 10 µM under setting [2] lay in the range of 25 to 50%. For `CCN1CCCC1CNc1nc(NCCCn2ccnc2)nc(Nc2ccc(OC)c(F)c2)n1` (stereo not drawn) [Compound 75, N^2-[(1-ethyl-2-pyrrolidinyl)methyl]-N^4-(3-fluoro-4-methoxyphenyl)-N^6-[3-(1H-imidazol-1-yl)propyl]-1,3,5-triazine-2,4,6-triamine], the activity at 10 µM reads like this: under setting [1], 25 to 50%; under setting [2], 25 to 50%.

Take `CCNc1nc(Nc2ccc(OC)c(F)c2)nc(NC2CCCCCC2)n1` [Compound 76, N^2-cycloheptyl-N^4-ethyl-N^6-(3-fluoro-4-methoxyphenyl)-1,3,5-triazine-2,4,6-triamine]: the activity at 10 µM under setting [1] is 0 to 25%. The same measure, in the same setting: under `COc1ccc(Nc2nc(NC3CCCCCC3)nc(NC(C)(C)C)n2)cc1F` [Compound 77, N^2-(tert-butyl)-N^4-cycloheptyl-N^6-(3-fluoro-4-methoxyphenyl)-1,3,5-triazine-2,4,6-triamine] stands 0 to 25%. Turning to `COc1ccc(Nc2nc(NCc3ccccc3)nc(NC3CCCCCC3)n2)cc1F` [Compound 78, N^2-benzyl-N^4-cycloheptyl-N^6-(3-fluoro-4-methoxyphenyl)-1,3,5-triazine-2,4,6-triamine], the activity at 10 µM under setting [1] lay in the range of 25 to 50%. In the case of `COc1ccc(Nc2nc(NC3CCCCCC3)nc(N3CCCC3)n2)cc1F` [Compound 82, N^2-cycloheptyl-N^4-(3-fluoro-4-methoxyphenyl)-6-(1-pyrrolidinyl)-1,3,5-triazine-2,4-diamine], the activity at 10 µM under setting [1] is 25 to 50%. Regarding `COc1ccc(Nc2nc(NC3CCCCCC3)nc(N3CCCCCC3)n2)cc1F` [Compound 83, N^2-cycloheptyl-N^4-(3-fluoro-4-methoxyphenyl)-6-hexahydro-1H-azepin-1-yl-1,3,5-triazine-2,4-diamine], the activity at 10 µM under setting [1] fell in the range of 0 to 25%. In the case of `COc1ccc(Nc2nc(NC3CCCCCC3)nc(N3CCCC4CCCCC43)n2)cc1F` (stereo not drawn) [Compound 84, N^2-cycloheptyl-N^4-(3-fluoro-4-methoxyphenyl)-6-octahydro-1(2H)-quinolinyl-1,3,5-triazine-2,4-diamine], the activity at 10 µM under setting [1] lay in the range of 25 to 50%. The same measure, in the same setting: under `COc1ccc(Nc2nc(NC3CCCCCC3)nc(NC3CCC(C)CC3)n2)cc1F` (stereo not drawn) [Compound 85, N^2-cycloheptyl-N^4-(3-fluoro-4-methoxyphenyl)-N^6-(4-methylcyclohexyl)-1,3,5-triazine-2,4,6-triamine] stands 25 to 50%.
